From PMC5437240, “Computational and structural evidence for neurotransmitter-mediated modulation of the oligomeric states of human insulin in storage granules” (The Journal of Biological Chemistry, 2017) come the findings set out here.

One may read the Kd as a measure of binding affinity in units of concentration.

For the assay, the target named is T1, porcine hexameric Zn2+-insulin (Sus scrofa, UniProt P01315).
T1 construct: gene INS; mature two-chain disulfide-linked insulin, cut from (pre)proinsulin; Zn2+ hexamer (two Zn per hexamer), T6 start state
T1 sequence (P01315 25-54): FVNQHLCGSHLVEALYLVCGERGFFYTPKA
T1 sequence (P01315 88-108): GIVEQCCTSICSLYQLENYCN
The assay can be described thus: UV-visible 4H3N chromophore titration, Hill fit. The settings on record: read-out: Kd ± S.D. It is filed as binding. The source says:
UV-visible 4H3N chromophore titration, Hill fit on porcine hexameric Zn2+-insulin

As to `Oc1ccccc1` [phenol], the Kd worked out at 860 ± 130 µM. Take `NCCc1c[nH]c2ccc(O)cc12` [serotonin]: the Kd was 3340 ± 520 µM.
